Test results taken from patent publication US9890171B2, “Aldosterone synthase inhibitors” (Boehringer Ingelheim International GmbH, priority 2014, dated 2018).
pIC50: −log10 of the molar value.

Molecular target: aldosterone synthase (CYP11B2) (Macaca fascicularis, UniProt A0A2K5UPL9)
Test: aldosterone synthase inhibition assay
Type: biochemical, cynomolgus monkey
Details: cynomolgus adrenal gland mitochondria, 2 μM corticosterone, aldosterone quantified by mass spectrometry
Method in brief: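 Cynomolgus adrenal mitochondria ([…]) used as CYP11B2 source with 2 μM corticosterone in 100 mM potassium phosphate pH 7.4, 1% DMSO; reaction started with 1 mM NADPH, run 60-90 min at 37° C. Aldosterone measured by mass spectrometry; IC50 from 4-parameter logistic fit, no-NADPH blank as 0%.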

Chain of aldosterone synthase (CYP11B2) (A0A2K5UPL9 1-503): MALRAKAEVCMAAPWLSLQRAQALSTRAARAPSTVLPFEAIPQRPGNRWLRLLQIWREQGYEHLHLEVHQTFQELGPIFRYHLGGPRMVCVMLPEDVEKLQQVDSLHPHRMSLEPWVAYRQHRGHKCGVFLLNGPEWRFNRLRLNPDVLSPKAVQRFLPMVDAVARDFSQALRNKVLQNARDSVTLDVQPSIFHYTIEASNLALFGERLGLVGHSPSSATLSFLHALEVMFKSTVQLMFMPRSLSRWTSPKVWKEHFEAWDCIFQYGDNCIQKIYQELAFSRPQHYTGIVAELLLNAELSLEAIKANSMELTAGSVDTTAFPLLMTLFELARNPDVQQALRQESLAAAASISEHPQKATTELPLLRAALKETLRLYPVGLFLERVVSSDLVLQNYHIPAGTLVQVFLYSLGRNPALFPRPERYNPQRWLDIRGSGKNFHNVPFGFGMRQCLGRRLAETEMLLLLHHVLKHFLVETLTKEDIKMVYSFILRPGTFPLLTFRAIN

| pIC50 | Structure (SMILES) |
| --- | --- |
| 7.07 | CCS(=O)(=O)NC1COCc2c(-c3ccc4c(c3)CC(=O)N4C)cncc21 (single isomer, unassigned) [Compound 63, Ethanesulfonic acid [8-(1-methyl-2-oxo-2,3-dihydro-1H-indol-5-yl)-3,4-dihydro-1H-pyrano[4,3-c]pyridin-4-yl]-amide] |
| 7.85 | O=c1ccc2cc(-c3cncc4c3COCC4O)ccc2o1 (single isomer, unassigned) [Compound 126, 6-(4-Hydroxy-3,4-dihydro-1H-pyrano[4,3-c]pyridin-8-yl)-chromen-2-one] |
| 7.62 | CN1C(=O)Cc2cc(-c3cncc4c3COCC4O)ccc21 (single isomer, unassigned) [Compound 51, 5-(4-Hydroxy-3,4-dihydro-1H-pyrano[4,3-c]pyridin-8-yl)-1-methyl-1,3-dihydro-indol-2-one] |
| 7.55 | CCC(=O)NC1COCc2c(-c3ccc4c(c3)C(F)(F)CCO4)cncc21 (single isomer, unassigned) [Compound 143, N-[8-(4,4-Difluoro-chroman-6-yl)-3,4-dihydro-1H-pyrano[4,3-c]pyridin-4-yl]-propionamide] |
| 6.66 | Cc1nnc2ccc(-c3cncc4c3COC3(CC3)C4O)cn12 (single isomer, unassigned) [Compound 91, 8-(3-methyl-[1,2,4]triazolo[4,3-a]pyridin-6-yl)spiro[1,4-dihydropyrano[4,3-c]pyridine-3,1′-cyclopropane]-4-ol] |
| 7.44 | Cn1ncc2ccc(-c3cncc4c3C(O)COC4)cc21 (single isomer, unassigned) [Compound 166, 5-(1-Methyl-1H-indazol-6-yl)-3,4-dihydro-1H-pyrano[3,4-c]pyridin-4-ol] |
| 7.76 | Cn1ncc2c(F)cc(-c3cncc4c3COCC4N)cc21 (single isomer, unassigned) [Compound 149, 8-(4-Fluoro-1-methyl-1H-indazol-6-yl)-3,4-dihydro-1H-pyrano[4,3-c]pyridin-4-ylamine] |
| 6.85 | CCS(=O)(=O)NC1COCc2c(-c3cc4c(cnn4C)cc3F)cncc21 (single isomer, unassigned) [Compound 195, Ethanesulfonic acid [8-(5-fluoro-1-methyl-1H-indazol-6-yl)-3,4-dihydro-1H-pyrano[4,3-c]pyridin-4-yl]-amide] |
